Data on 20 compounds can be found in patent US20230079819A1, “COMPOUNDS AND USES THEREOF” (Foghorn Therapeutics Inc., priority 2019, published 2023).

The target of one test is T1, BRG-1 (Homo sapiens, UniProt P51532).
T1 construct: made in house; host or cells: High Five insect cells
Description: ATPase catalytic activity of BRG-1, ADP-Glo in vitro biochemical assay. Particulars: 30 nM BRG-1, 400 μM ATP, read-out: BRG1 IP50.

Another test concerns the target T2, BRM (Homo sapiens, UniProt P51531).
T2 construct: made in house; host or cells: High Five insect cells
As to the kind of experiment: ATPase catalytic activity of BRM, ADP-Glo in vitro biochemical assay. The conditions noted are these: 30 nM BRM, 400 μM ATP, read-out: BRM IP50.

Where two headings read alike, the source gives them in different places. Where only a bound is given, the exact number is not on record here.

T1 sequence (P51532 whole entry): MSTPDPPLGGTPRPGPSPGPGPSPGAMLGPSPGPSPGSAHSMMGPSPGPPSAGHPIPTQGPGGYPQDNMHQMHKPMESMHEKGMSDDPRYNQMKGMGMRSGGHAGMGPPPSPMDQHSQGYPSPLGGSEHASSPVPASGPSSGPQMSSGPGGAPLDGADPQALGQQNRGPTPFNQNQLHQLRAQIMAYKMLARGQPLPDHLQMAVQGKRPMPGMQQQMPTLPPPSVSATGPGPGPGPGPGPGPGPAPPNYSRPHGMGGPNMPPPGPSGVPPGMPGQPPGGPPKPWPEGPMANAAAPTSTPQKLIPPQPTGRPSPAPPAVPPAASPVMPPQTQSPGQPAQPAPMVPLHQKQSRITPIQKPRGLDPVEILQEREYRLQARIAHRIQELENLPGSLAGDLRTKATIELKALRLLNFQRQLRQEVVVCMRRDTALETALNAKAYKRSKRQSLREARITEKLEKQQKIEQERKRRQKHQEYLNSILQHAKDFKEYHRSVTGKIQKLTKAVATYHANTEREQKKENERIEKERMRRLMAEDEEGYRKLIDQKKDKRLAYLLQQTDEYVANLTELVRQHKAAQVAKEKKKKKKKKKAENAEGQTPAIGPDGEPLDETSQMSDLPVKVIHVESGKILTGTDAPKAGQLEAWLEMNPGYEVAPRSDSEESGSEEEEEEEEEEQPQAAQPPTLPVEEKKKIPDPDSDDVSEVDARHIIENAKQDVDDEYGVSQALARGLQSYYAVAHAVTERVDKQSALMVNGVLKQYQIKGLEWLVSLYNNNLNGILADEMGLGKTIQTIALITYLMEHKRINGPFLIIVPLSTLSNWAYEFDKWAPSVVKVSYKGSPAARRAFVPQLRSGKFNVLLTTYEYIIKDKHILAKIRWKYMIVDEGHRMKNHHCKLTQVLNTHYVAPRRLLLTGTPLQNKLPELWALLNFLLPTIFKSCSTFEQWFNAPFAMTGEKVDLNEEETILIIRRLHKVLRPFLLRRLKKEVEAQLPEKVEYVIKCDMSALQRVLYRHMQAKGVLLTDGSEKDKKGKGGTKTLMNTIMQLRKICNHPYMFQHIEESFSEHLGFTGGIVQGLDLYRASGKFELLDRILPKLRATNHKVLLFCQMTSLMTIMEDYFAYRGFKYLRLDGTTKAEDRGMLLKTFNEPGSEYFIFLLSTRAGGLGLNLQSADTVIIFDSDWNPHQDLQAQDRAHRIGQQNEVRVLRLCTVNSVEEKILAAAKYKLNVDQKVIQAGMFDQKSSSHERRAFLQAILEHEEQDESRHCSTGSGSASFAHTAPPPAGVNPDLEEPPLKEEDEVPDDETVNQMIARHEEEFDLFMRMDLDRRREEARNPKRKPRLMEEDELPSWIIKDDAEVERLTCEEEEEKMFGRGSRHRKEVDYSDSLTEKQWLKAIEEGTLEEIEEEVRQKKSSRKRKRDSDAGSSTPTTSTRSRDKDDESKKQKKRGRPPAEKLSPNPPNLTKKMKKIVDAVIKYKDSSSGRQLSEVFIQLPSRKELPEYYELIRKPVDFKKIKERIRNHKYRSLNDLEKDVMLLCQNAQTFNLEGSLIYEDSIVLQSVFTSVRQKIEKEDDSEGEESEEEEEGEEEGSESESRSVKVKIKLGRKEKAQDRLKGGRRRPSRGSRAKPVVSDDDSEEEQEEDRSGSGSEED
T2 sequence (P51531 whole entry): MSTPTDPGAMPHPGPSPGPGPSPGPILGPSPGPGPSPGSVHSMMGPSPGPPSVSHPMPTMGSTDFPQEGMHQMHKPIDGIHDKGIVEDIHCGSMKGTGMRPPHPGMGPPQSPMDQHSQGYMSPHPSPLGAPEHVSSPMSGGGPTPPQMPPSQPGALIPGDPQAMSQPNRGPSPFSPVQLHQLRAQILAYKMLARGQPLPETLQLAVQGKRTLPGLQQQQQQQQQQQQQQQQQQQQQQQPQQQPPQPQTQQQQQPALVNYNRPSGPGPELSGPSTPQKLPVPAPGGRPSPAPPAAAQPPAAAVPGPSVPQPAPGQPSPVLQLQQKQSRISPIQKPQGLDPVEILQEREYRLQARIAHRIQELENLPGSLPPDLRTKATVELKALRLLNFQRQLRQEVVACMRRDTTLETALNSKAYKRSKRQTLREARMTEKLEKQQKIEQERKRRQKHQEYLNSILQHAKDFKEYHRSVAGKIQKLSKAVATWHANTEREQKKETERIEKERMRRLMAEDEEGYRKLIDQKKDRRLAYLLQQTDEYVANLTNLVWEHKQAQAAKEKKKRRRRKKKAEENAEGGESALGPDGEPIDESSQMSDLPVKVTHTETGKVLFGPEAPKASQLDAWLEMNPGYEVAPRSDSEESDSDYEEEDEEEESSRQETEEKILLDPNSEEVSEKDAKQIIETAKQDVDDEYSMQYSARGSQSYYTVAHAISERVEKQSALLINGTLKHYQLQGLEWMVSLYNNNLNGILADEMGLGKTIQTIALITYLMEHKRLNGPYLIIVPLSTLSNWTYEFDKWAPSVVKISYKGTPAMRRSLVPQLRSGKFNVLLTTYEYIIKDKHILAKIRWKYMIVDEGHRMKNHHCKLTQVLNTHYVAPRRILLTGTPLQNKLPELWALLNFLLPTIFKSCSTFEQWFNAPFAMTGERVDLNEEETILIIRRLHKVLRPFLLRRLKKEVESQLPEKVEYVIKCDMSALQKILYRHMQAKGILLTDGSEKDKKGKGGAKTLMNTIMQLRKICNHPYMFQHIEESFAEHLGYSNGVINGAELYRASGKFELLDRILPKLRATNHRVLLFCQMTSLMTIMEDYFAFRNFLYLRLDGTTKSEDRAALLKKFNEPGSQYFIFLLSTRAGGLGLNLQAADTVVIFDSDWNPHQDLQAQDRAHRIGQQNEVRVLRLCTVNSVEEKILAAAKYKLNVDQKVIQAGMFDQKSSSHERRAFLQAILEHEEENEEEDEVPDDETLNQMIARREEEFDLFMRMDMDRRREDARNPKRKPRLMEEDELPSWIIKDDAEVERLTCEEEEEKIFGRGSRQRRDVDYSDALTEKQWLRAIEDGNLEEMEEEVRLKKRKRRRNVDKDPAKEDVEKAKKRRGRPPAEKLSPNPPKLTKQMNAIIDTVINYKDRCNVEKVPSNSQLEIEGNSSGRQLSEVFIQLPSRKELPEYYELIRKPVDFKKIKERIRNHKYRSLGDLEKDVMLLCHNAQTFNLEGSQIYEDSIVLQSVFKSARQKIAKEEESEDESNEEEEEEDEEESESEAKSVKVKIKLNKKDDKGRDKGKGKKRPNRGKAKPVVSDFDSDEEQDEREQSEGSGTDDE

In the case of `CN1CCOc2ccc(-c3csc(NC(=O)CNC(=O)c4cn(C(C)(C)C#N)cn4)n3)cc21` [Compound 784], the IC50 on BRG-1 (ATPase catalytic activity) and on BRM (ATPase catalytic activity) was > 10 nM in each case.

For the compound `CC(C)(C#N)n1cnc(C(=O)NCC(=O)Nc2nc(-c3cc(F)c4c(c3)OCC4)cs2)c1` [Compound 785], the IC50 at BRG-1 (ATPase catalytic activity) and on BRM (ATPase catalytic activity) was > 10 nM each time.

With `C[C@@H]1CN(c2cccc(-c3csc(NC(=O)CNC(=O)c4ccn(C(C)(C)C#N)n4)n3)n2)C[C@H](C)O1` [Compound 786], the IC50 is > 10 nM at BRG-1 and < 10 nM on BRM.

Consider `CN1CCOc2ccc(-c3csc(NC(=O)CNC(=O)c4ccn(C(C)(C)C#N)n4)n3)cc21` [Compound 787], for which the IC50 on BRG-1 and at BRM was > 10 nM each time.

In the case of `N#CC1(n2cnc(C(=O)NCC(=O)Nc3nc(-c4cc(F)c5c(c4)OCC5)cs3)c2)CC1` [Compound 788], the IC50 at BRG-1 and at BRM was > 100 nM throughout.

With `Cn1ccc(-c2cccc(-c3csc(NC(=O)CNC(=O)c4ccn(C(C)(C)C#N)n4)n3)c2)n1` [Compound 790], the IC50 at BRG-1 and on BRM was > 10 nM throughout.

As to `CC(C)(C#N)n1ccc(C(=O)NCC(=O)Nc2nc(-c3cc(F)c4c(c3)OCC4)cs2)n1` [Compound 791], the IC50 at BRG-1 and at BRM was > 10 nM in each case.

Turning to `C[C@H](NC(=O)c1ccn(C(C)(C)C)n1)C(=O)Nc1nc(-c2ccc3ccn(C)c(=O)c3c2)cs1` [Compound 792], the IC50 on BRG-1 and at BRM was > 100 nM throughout.

Take `Cn1ccc2ccc(-c3csc(NC(=O)CNC(=O)c4ccn(C5(C#N)CC5)n4)n3)cc2c1=O` [Compound 793]: the IC50 at BRG-1 and at BRM was > 10 nM in each case.

Turning to `N#CC1(n2ccc(C(=O)NCC(=O)Nc3nc(-c4cccc(OC(F)(F)F)c4)cs3)n2)CC1` [Compound 794], the IC50 on BRG-1 and on BRM was > 100 nM each time.

As to `C[C@@H]1CN(c2cccc(-c3csc(NC(=O)[C@H](C)NC(=O)c4ccn(C5(C#N)CC5)n4)n3)n2)C[C@H](C)O1` [Compound 795], the IC50 at BRG-1 is > 100 nM; on BRM, > 10 nM.

`N#CC1(n2ccc(C(=O)NCC(=O)Nc3nc(-c4cc(F)cc(OC5CC5)c4)cs3)n2)CC1` [Compound 796]: the IC50 on BRG-1 and on BRM was > 100 nM throughout.

Turning to `C[C@@H]1CN(c2cccc(-c3csc(NC(=O)[C@H](C)NC(=O)c4cn(C5(C)COC5)cn4)n3)n2)C[C@H](C)O1` [Compound 797], the IC50 at BRG-1 and at BRM was > 100 nM in each case.

Consider `Cn1ccc(-c2cccc(-c3csc(NC(=O)CNC(=O)c4ccn(C5(C)COC5)n4)n3)c2)n1` [Compound 798], for which the IC50 at BRG-1 and at BRM was > 100 nM in each case.

`C[C@H](NC(=O)c1cn(C2(C)COC2)cn1)C(=O)Nc1nc(-c2ccc3ccn(C)c(=O)c3c2)cs1` [Compound 801]: the IC50 on BRG-1 and at BRM was > 100 nM each time.

For `COC[C@H](NC(=O)c1cn(C(C)(C)C#N)cn1)C(=O)Nc1nc(-c2ccc3ccn(C)c(=O)c3c2)cs1` [Compound 802], the IC50 on BRG-1 and at BRM was > 10 nM in each case.

For the compound `N#CC1(n2ccc(C(=O)NCC(=O)Nc3nc(-c4cc(F)c5c(c4)OCC5)cs3)n2)CC1` [Compound 803], the IC50 is > 100 nM at BRG-1 and > 10 nM on BRM.

Regarding `COC[C@H](NC(=O)c1cn(C2(C)COC2)cn1)C(=O)Nc1nc(-c2ccc3ccn(C)c(=O)c3c2)cs1` [Compound 804], the IC50 on BRG-1 and at BRM was > 100 nM in each case.

`C[C@H](NC(=O)c1ccn(C2(C#N)CC2)n1)C(=O)Nc1nc(-c2ccc3ccn(C)c(=O)c3c2)cs1` [Compound 805]: the IC50 on BRG-1 and on BRM was > 100 nM each time.

With `C[C@@H]1CN(c2cccc(-c3csc(NC(=O)CNC(=O)c4ccn(C5(C#N)CC5)n4)n3)n2)C[C@H](C)O1` [Compound 806], the IC50 at BRG-1 and at BRM was > 10 nM in each case.
